Data on 1 compound can be found in article PMC4374867, “The Novel Tubulin Polymerization Inhibitor MHPT Exhibits Selective Anti-Tumor Activity against Rhabdomyosarcoma In Vitro and In Vivo” (PLoS ONE, 2015).

For this experiment, the system named is T1, tubulin (alpha- and beta-tubulin).
T1 construct: with alpha-/beta-tubulin heterodimer
Description: cell-free fluorescence-based tubulin polymerization assay (Cytoskeleton BK011P). In kind it is biochemical, Bos taurus.

The term IC50 denotes the concentration at which inhibition is half-maximal. In turn, `COc1cccc(C=C2SC(=Nc3ccc(O)cc3)NC2=O)c1` [MHPT, 2-((4-hydroxyphenyl)imino)-5-(3-methoxybenzylidene)thiazolidin-4-one] gave an IC50 of 6.28 µM.
